Results reported in PMC12951562, “SH2scan: Mapping SH2 Domain-Ligand Binding Selectivity for Inhibitors and Degraders” (Journal of Medicinal Chemistry, 2026).
Where two headings read alike, the source gives them in different places. Non-standard residues stand in square brackets, D forms with d. Residues, ends and D or L forms follow the SMILES beside them. *: point of attachment. pY = N[C@@H](Cc1ccc(OP(=O)(O)O)cc1)C(=O)O; Caffeoyl = O=C(/C=C/c1ccc(O)c(O)c1)*

Tests used:
Assay in all cases: biochemical
Type in all cases: binding
SH3BP2 = target: T1, SH3BP2 (Homo sapiens, UniProt P78314); settings: for remaining activity at 10 µM: read-out: percent of DMSO vehicle control
T1 construct: made in house; host or cells: HEK293 (transient transfection), unpurified extract
T1 sequence (P78314 1-561): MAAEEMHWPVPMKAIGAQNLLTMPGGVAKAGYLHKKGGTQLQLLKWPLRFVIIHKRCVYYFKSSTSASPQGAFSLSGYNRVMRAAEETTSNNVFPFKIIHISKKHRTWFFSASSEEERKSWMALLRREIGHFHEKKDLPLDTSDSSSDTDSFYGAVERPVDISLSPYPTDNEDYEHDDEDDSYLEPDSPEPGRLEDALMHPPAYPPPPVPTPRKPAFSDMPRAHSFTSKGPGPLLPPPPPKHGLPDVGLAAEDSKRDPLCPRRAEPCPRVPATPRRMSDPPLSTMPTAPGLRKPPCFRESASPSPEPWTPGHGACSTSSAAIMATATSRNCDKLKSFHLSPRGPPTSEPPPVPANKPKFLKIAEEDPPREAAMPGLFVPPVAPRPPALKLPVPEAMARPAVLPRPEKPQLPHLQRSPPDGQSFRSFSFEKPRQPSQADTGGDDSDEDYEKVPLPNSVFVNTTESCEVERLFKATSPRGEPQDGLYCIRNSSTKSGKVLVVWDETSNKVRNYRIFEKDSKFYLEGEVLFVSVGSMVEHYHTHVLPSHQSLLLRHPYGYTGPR

LYN = target: T2, LYN (Homo sapiens, UniProt P07948); settings: for remaining activity at 10 µM: read-out: percent of DMSO vehicle control
T2 construct: the DNA-tagged SH2 domain concentrations used in this study were <0.1 nM; made in house; host or cells: HEK293 (transient transfection, unpurified extract)

MATK = target: T3, MATK (Homo sapiens, UniProt P42679)
T3 construct: the DNA-tagged SH2 domain concentrations used in this study were <0.1 nM; made in house; host or cells: HEK293 (transient transfection, unpurified extract)
T3 sequence (P42679 122-211 limits assumed): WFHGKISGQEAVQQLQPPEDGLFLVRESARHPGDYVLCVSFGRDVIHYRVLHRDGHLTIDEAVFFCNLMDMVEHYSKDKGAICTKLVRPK

SHC3 = target: T4, SHC3 (Homo sapiens, UniProt Q92529); settings: for remaining activity at 10 µM: read-out: percent of DMSO vehicle control
T4 construct: made in house; host or cells: HEK293 (transient transfection), unpurified extract
T4 sequence (Q92529 1-594): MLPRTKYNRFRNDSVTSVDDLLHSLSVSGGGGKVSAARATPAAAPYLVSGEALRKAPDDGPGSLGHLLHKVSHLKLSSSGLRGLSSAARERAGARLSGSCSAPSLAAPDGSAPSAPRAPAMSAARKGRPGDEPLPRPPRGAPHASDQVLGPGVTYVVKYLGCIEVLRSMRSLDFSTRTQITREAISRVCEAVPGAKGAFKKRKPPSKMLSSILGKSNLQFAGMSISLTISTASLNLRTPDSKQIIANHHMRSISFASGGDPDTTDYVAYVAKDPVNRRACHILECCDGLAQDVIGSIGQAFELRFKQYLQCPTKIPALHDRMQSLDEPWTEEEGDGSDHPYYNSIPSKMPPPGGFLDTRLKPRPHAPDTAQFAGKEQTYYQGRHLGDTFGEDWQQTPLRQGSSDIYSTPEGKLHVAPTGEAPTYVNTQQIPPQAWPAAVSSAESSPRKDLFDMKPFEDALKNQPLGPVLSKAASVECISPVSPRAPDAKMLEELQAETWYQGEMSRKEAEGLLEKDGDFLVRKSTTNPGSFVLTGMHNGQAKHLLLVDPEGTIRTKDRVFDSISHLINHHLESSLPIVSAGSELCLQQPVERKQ

SOCS7 = target: T5, SOCS7 (Homo sapiens, UniProt O14512); settings: for remaining activity at 10 µM: read-out: percent of DMSO vehicle control
T5 construct: made in house; host or cells: HEK293 (transient transfection), unpurified extract
T5 sequence (O14512 1-581): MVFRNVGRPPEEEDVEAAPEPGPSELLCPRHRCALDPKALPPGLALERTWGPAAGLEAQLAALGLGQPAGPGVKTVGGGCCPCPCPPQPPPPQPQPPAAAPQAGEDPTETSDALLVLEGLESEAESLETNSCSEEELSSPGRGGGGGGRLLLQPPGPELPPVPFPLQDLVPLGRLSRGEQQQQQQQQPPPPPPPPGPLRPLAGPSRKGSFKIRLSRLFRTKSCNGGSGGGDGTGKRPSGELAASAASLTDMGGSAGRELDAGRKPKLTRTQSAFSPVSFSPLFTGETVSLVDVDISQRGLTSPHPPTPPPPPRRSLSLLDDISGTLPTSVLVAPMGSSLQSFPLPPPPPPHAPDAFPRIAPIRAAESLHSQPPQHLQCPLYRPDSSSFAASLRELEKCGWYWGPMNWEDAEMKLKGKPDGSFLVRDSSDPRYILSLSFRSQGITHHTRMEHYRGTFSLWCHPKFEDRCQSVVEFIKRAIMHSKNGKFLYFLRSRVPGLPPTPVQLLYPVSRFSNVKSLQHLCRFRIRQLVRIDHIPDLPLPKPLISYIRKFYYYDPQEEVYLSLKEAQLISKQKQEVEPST

VAV1 = target: T6, VAV1 (Homo sapiens, UniProt P15498)
T6 construct: made in house; host or cells: HEK293 (transient transfection), unpurified extract
T6 sequence (P15498 1-845): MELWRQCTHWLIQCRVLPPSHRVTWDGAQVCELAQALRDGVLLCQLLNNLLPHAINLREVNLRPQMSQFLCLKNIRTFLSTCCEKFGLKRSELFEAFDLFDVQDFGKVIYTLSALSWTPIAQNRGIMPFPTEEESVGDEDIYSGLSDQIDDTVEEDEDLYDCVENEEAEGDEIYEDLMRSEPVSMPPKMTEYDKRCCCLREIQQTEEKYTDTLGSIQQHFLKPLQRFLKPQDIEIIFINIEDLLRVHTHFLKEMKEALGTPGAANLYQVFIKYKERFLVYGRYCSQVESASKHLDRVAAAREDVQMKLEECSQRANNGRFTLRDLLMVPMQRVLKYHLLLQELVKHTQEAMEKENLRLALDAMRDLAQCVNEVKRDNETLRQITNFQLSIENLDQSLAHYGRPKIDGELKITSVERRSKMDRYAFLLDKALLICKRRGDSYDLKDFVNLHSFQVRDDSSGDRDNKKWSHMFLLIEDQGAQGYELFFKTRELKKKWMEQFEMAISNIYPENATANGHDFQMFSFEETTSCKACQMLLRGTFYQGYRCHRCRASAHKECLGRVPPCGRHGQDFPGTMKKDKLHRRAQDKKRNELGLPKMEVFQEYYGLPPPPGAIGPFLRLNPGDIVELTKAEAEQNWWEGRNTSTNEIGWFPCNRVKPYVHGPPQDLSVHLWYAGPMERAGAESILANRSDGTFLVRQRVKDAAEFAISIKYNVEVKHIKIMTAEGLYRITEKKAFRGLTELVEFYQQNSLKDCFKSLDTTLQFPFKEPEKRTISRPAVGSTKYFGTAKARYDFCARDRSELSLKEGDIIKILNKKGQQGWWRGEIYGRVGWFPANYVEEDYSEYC

[1] = read-out: percent of DMSO vehicle control
[2] = primary screen, 10 μM, read-out: percent of DMSO vehicle control

T2 sequence (P07948 129-226 limits assumed): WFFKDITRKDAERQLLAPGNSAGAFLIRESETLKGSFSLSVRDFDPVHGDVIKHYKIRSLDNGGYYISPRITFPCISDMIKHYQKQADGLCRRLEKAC

Row | SMILES | Kd (SH3BP2) [nM] | remaining activity at 10 µM (LYN) [%] | percent of DMSO vehicle control at 10 µM (MATK; [1]) [%] | remaining activity at 10 µM (SH3BP2) [%] | Kd (SHC3) [nM] | remaining activity at 10 µM (SHC3) [%] | remaining activity at 10 µM (SOCS7) [%] | Kd (VAV1) [nM] | percent of DMSO vehicle control at 10 µM (VAV1; [1]) [%] | further results
1 | CC[C@H](C)[C@H](NC(=O)[C@H](CO)NC(=O)[C@H](CC(C)C)NC(=O)[C@H](CCCNC(=N)N)NC(=O)[C@H](CO)NC(=O)[C@H](CS)NC(C)=O)C(=O)N[C@@H](Cc1ccc(OP(=O)(O)O)cc1)C(=O)N[C@@H](CC(=O)O)C(=O)N[C@@H](CC(N)=O)C(=O)N[C@H](C(=O)N1CCC[C@H]1C(=O)NCC(N)=O)C(C)C [Ac-CSRLSIpYDNVPG-NH2] (Ac-CSRLSI[pY]DNVPG-NH2) | 209 ± 10.1 | – | – | – | – | – | – | – | – | –
2 | CC[C@H](C)[C@H](NC(=O)[C@H](CCC(=O)O)NC(=O)[C@H](CCC(=O)O)NC(=O)[C@H](Cc1ccc(OP(=O)(O)O)cc1)NC(C)=O)C(=O)N[C@@H](CCC(=O)O)C(N)=O [Ac-pYEEIE-NH2] (Ac-[pY]EEIE-NH2) | – | – | – | – | – | – | – | – | – | percent of DMSO vehicle control (LYN; primary screen, 10 μM): 38.1±2.4%; percent of DMSO vehicle control (MATK; primary screen, 10 μM): 197.1%; percent of DMSO vehicle control (SH3BP2; primary screen, 10 μM): 90.0±2.1%; percent of DMSO vehicle control (SHC3; primary screen, 10 μM): 98.9±6.8%; percent of DMSO vehicle control (SOCS7; primary screen, 10 μM): 110.9%; percent of DMSO vehicle control (VAV1; primary screen, 10 μM): 87.2±8.1%
3 | CC(=O)N[C@@H](Cc1ccc(CP(=O)(O)O)cc1)C(=O)NC1(C(=O)N[C@@H](CC(N)=O)C(=O)NCCCc2c(O)ccc3ccccc23)CCCCC1 [CGP78850] | – | 40 | 153 ± 7.1 | 77.8 ± 0.5 | 1800 ± 240 | 29.2 ± 2.8 | 126 ± 4.2 | 260 | 1.8 ± 0.4 | –
4 | CC[C@H](C)[C@H](NC(=O)[C@H](CCC(=O)O)NC(=O)[C@H](CCC(=O)O)NC(=O)[C@H](Cc1ccc(OP(=O)(O)O)cc1)NC(=O)/C=C/c1ccc(O)c(O)c1)C(=O)N[C@@H](CCC(=O)O)C(=O)O [Caffeic acid-pYEEIE] (Caffeoyl-[pY]EEIE-OH) | 1020 ± 600 | 0 | 83.8 ± 3.5 | 0.9 ± 0.3 | 130 ± 120 | 0 | 0.5 ± 0.4 | 840 ± 530 | 1.6 ± 0.6 | Kd (LYN): 1 ± 0.34 nM; Kd (SOCS7): 0.28 ± 0.14 µM
5 | O=C(CCl)Nc1cccc(CNC(=O)[C@H](Cc2ccc(OP(=O)(O)O)cc2)NC(=O)Cc2ccc(F)cc2)c1 [MN551] | – | – | – | – | – | – | – | – | – | remaining activity at 10 µM (LYN; primary screen, 10 μM): 161%; remaining activity at 10 µM (MATK; [2]): 60.4 ± 2.8%; remaining activity at 10 µM (SH3BP2; primary screen, 10 μM): 109%; remaining activity at 10 µM (SHC3; primary screen, 10 μM): 91.2 ± 1.9%; Kd (SOCS7; dose-response, read-out: KD): 8.1 µM; remaining activity at 10 µM (SOCS7; primary screen, 10 μM): 21.9 ± 5%; remaining activity at 10 µM (VAV1; [2]): 109%
